Data reported in patent US12336981B2, “Compounds and compositions for the inhibition of NAMPT” (Valo Health, Inc., priority 2010, dated 2025).
Read-outs that look alike come from different tables or passages of the source.

Experiments:
NAMPT = target: T1, NAMPT (Homo sapiens, UniProt P43490); assay: Biochemical inhibition assay: NAMPT enzymatic reaction, NMN quantified by mass spectrometry; details: read-out: Biochem IC50
T1 construct: His tag; host or cells: E. coli
Procedure, shortened: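 Inhibition of E. coli-expressed His-tagged human NAMPT, measured as NMN formation by mass spectrometry after a 30 min room-temperature reaction containing 1 μM NAM, 100 μM PRPP and 2.5 mM ATP.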

A2780 cells = assay: In-vitro cell proliferation assay (SRB), A2780 cells; type: cell-based; details: Homo sapiens, A2780, 72 h, A2780 cells, 72 hours, read-out: A2780 IC50
Procedure, shortened: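 Viable cells measured by SRB staining after 6% TCA fixation, absorbance 570 nm. Media-only background subtracted; % inhibition derived at two compound concentrations.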

T1 sequence (P43490 whole entry): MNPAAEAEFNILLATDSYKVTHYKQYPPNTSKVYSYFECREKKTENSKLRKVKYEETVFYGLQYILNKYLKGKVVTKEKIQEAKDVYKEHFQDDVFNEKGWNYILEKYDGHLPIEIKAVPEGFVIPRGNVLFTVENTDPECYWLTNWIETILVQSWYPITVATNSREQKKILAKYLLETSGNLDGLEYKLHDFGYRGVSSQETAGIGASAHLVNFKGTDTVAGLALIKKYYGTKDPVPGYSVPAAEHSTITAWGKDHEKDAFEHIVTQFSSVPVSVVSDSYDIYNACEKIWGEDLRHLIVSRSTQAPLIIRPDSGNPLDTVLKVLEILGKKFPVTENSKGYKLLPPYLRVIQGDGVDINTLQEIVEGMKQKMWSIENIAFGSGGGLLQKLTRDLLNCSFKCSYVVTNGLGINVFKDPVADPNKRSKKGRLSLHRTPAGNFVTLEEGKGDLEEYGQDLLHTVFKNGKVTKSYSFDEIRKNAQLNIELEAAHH

## COc1ccc(NS(=O)(=O)c2ccc(CNC(=O)c3cc4cnccc4[nH]3)cc2)c(OC)c1 [N-({4-[(2,4-dimethoxyphenyl)sulfamoyl]phenyl}methyl)-1H-pyrrolo[3,2-c]pyridine-2-carboxamide]
NAMPT; NAMPT enzymatic assay
  IC50: 0.0058 µM
A2780 cells; SRB
  IC50: 0.0069 µM

## O=C(NCc1ccc(S(=O)(=O)c2cccc(F)c2)cc1)c1cc2cnccc2[nH]1 [N-({4-[(3-fluorobenzene)sulfonyl]phenyl}methyl)-1H-pyrrolo[3,2-c]pyridine-2-carboxamide]
NAMPT; NAMPT enzymatic reaction
  IC50: 0.009 µM
A2780 cells; SRB assay
  IC50: 0.01 µM

## COc1c(Cl)ccc(S(=O)(=O)c2ccc(CNC(=O)c3cc4ccncc4o3)cc2)c1Cl
NAMPT; NAMPT enzymatic reaction
  IC50: 0.0177 µM
A2780 cells; SRB
  IC50: 0.0162 µM

## O=C(NCc1ccc(S(=O)(=O)c2cccc(F)c2F)cc1)c1cnc2[nH]ncc2c1
NAMPT; NAMPT enzymatic reaction
  IC50: 0.082 µM
A2780 cells; SRB
  IC50: 0.279 µM

## COc1ccc(F)cc1S(=O)(=O)c1ccc(CNC(=O)c2cnc3nccn3c2)cc1
NAMPT; NAMPT enzymatic reaction
  IC50: 0.0073 µM
A2780 cells; SRB
  IC50: 0.0261 µM

## O=C(NCc1ccc(S(=O)(=O)Nc2ccc3c(c2)OCCO3)cc1)c1cc2cnccc2[nH]1 [N-({4-[(2,3-dihydro-1,4-benzodioxin-6-yl)sulfamoyl]phenyl}methyl)-1H-pyrrolo[3,2-c]pyridine-2-carboxamide]
NAMPT; NAMPT enzymatic reaction
  IC50: > 10 µM
A2780 cells; SRB assay
  IC50: > 10 µM

## Cc1ccc(Cl)c(S(=O)(=O)c2ccc(CNC(=O)c3cc4ccncc4s3)cc2)c1
NAMPT; NAMPT enzymatic reaction
  IC50: 0.0022 µM
A2780 cells; SRB
  IC50: 0.0049 µM

## O=C(NCc1ccc(S(=O)(=O)c2ccc(N3CCOCC3)cc2)cc1)c1cc2ccncc2o1
NAMPT; NAMPT enzymatic assay
  IC50: 0.0046 µM
A2780 cells; SRB
  IC50: 0.0025 µM

## Cc1cccc(S(=O)(=O)c2ccc(CNC(=O)c3cc4ccncc4o3)cc2)n1 [N-{[4-(6-methylpyridine-2-sulfonyl)phenyl]methyl}furo[2,3-c]pyridine-2-carboxamide]
NAMPT; NAMPT enzymatic assay
  IC50: 0.0128 µM
A2780 cells; SRB
  IC50: 0.0125 µM

## O=C(NCc1ccc(S(=O)(=O)c2cccc3ccsc23)cc1)c1cnc2[nH]ncc2c1 [N-{[4-(1-benzothiophene-7-sulfonyl)phenyl]methyl}-1H-pyrazolo[3,4-b]pyridine-5-carboxamide]
NAMPT; NAMPT enzymatic assay
  IC50: 0.0099 µM
A2780 cells; SRB
  IC50: 0.0128 µM

## COc1ccc(C(C)=O)cc1S(=O)(=O)c1ccc(CNC(=O)c2cnc3[nH]ncc3c2)cc1
NAMPT; NAMPT enzymatic reaction
  IC50: 0.0277 µM
A2780 cells; SRB
  IC50: 0.0275 µM

## O=C(NCc1ccc(S(=O)(=O)c2cnc3ccc(Cl)cn23)cc1)c1cc2ccncc2o1 [N-[(4-{6-chloroimidazo[1,2-a]pyridine-3-sulfonyl}phenyl)methyl]furo[2,3-c]pyridine-2-carboxamide]
NAMPT; NAMPT enzymatic assay
  IC50: 0.0012 µM
A2780 cells; SRB
  IC50: 0.0004 µM

## O=C(NCc1ccc(S(=O)(=O)c2ccc(-n3cccn3)cc2F)cc1)c1cc2ccncc2o1
NAMPT; NAMPT enzymatic assay
  IC50: 0.0184 µM
A2780 cells; SRB
  IC50: 0.008 µM

## O=C(NCc1ccc(S(=O)(=O)N2CCCCC2)cc1)c1ccc2cnccc2n1 [N-{[4-(piperidine-1-sulfonyl)phenyl]methyl}-1,6-naphthyridine-2-carboxamide]
NAMPT; NAMPT enzymatic reaction
  IC50: 0.012 µM
A2780 cells; SRB assay
  IC50: 0.01 µM

## Cc1cc(S(=O)(=O)c2ccc(CNC(=O)c3cnc4nccn4c3)cc2)c(C)cc1F
NAMPT; NAMPT enzymatic reaction
  IC50: 0.0058 µM
A2780 cells; SRB
  IC50: 0.0294 µM

## COc1ccc(S(=O)(=O)c2ccc(CNC(=O)c3ccc4nccn4c3)cc2)cc1 [N-({4-[(4-methoxybenzene)sulfonyl]phenyl}methyl)imidazo[1,2-a]pyridine-6-carboxamide]
NAMPT; NAMPT enzymatic reaction
  IC50: 0.00974 µM
A2780 cells; SRB
  IC50: 0.00866 µM

## CCN(CC)C(=O)c1ccc(F)c(S(=O)(=O)c2ccc(CNC(=O)c3cc4cnccc4[nH]3)cc2)c1
NAMPT; NAMPT enzymatic assay
  IC50: 0.0384 µM
A2780 cells; SRB
  IC50: 0.0262 µM

## CCOc1ccc(S(=O)(=O)c2ccc(CNC(=O)c3cc4cnccc4[nH]3)cc2)c(C)c1
NAMPT; NAMPT enzymatic reaction
  IC50: 0.0092 µM
A2780 cells; SRB
  IC50: 0.0126 µM

## O=C(NCc1ccc(S(=O)(=O)c2cccc(C(=O)NC3CCCC3)c2)cc1)c1ccc2nccn2c1
NAMPT; NAMPT enzymatic assay
  IC50: 0.0103 µM
A2780 cells; SRB
  IC50: 0.0162 µM

## Cc1ccc(Cl)c(S(=O)(=O)c2ccc(CNC(=O)c3cc4ccncc4o3)cc2)c1F [N-({4-[(6-chloro-2-fluoro-3-methylbenzene)sulfonyl]phenyl}methyl)furo[2,3-c]pyridine-2-carboxamide]
NAMPT; NAMPT enzymatic assay
  IC50: 0.0219 µM
A2780 cells; SRB
  IC50: 0.0293 µM

## COc1ccc(OC)c(S(=O)(=O)c2ccc(CNC(=O)c3cnc4nccn4c3)cc2)c1 [N-({4-[(2,5-dimethoxybenzene)sulfonyl]phenyl}methyl)imidazo[1,2-a]pyrimidine-6-carboxamide]
NAMPT; NAMPT enzymatic reaction
  IC50: 0.0069 µM
A2780 cells; SRB
  IC50: 0.0457 µM

## O=C(NCc1ccc(S(=O)(=O)c2cccc(OCCN3CCOCC3)c2)cc1)c1cc2cnccc2[nH]1
NAMPT; NAMPT enzymatic assay
  IC50: 0.0649 µM
A2780 cells; SRB
  IC50: 0.0126 µM

## CN(C)CCc1cccc(S(=O)(=O)c2ccc(CNC(=O)c3cc4ccncc4s3)cc2)c1
NAMPT; NAMPT enzymatic assay
  IC50: 0.0025 µM
A2780 cells; SRB
  IC50: 0.0016 µM

## CC(C)COc1cccc(S(=O)(=O)c2ccc(CNC(=O)c3cnc4[nH]ncc4c3)cc2)c1
NAMPT; NAMPT enzymatic assay
  IC50: 0.0285 µM
A2780 cells; SRB
  IC50: 0.0342 µM

## COc1ccc(F)c(S(=O)(=O)c2ccc(CNC(=O)c3cnc4nccn4c3)cc2)c1
NAMPT; NAMPT enzymatic reaction
  IC50: 0.0104 µM
A2780 cells; SRB
  IC50: 0.0629 µM

## Nc1ccc(C(=O)NCc2ccc(S(=O)(=O)c3cc(F)cc(F)c3)cc2)cn1 [6-amino-N-({4-[(3,5-difluorobenzene)sulfonyl]phenyl}methyl)pyridine-3-carboxamide]
NAMPT; NAMPT enzymatic reaction
  IC50: 0.0142 µM
A2780 cells; SRB
  IC50: 0.275 µM

## O=C(NCc1ccc(S(=O)(=O)c2nccs2)cc1)c1ccc2nccn2c1 [N-{[4-(1,3-thiazole-2-sulfonyl)phenyl]methyl}imidazo[1,2-a]pyridine-6-carboxamide]
NAMPT; NAMPT enzymatic assay
  IC50: 0.021 µM
A2780 cells; SRB
  IC50: 0.0994 µM

## COc1ccc(C)cc1S(=O)(=O)c1ccc(CNC(=O)c2cnc3[nH]ncc3c2)cc1 [N-({4-[(2-methoxy-5-methylbenzene)sulfonyl]phenyl}methyl)-1H-pyrazolo[3,4-b]pyridine-5-carboxamide]
NAMPT; NAMPT enzymatic reaction
  IC50: 0.0563 µM
A2780 cells; SRB
  IC50: 0.0244 µM

## O=C(NCc1ccc(S(=O)(=O)c2cccc(-c3ccc(F)c(F)c3)n2)cc1)c1cc2cnccc2[nH]1 [N-({4-[6-(3,4-difluorophenyl)pyridine-2-sulfonyl]phenyl}methyl)-1H-pyrrolo[3,2-c]pyridine-2-carboxamide]
NAMPT; NAMPT enzymatic assay
  IC50: 0.016 µM
A2780 cells; SRB
  IC50: 0.0127 µM

## COc1cccc(S(=O)(=O)c2ccc(CNC(=O)c3cnc4nccn4c3)cc2)c1OC
NAMPT; NAMPT enzymatic reaction
  IC50: 0.0176 µM
A2780 cells; SRB
  IC50: 0.0776 µM

## Cc1ccc(S(=O)(=O)c2ccc(CNC(=O)c3ccc4nccn4c3)cc2)cc1F [N-({4-[(3-fluoro-4-methylbenzene)sulfonyl]phenyl}methyl)imidazo[1,2-a]pyridine-6-carboxamide]
NAMPT; NAMPT enzymatic reaction
  IC50: 0.0133 µM
A2780 cells; SRB
  IC50: 0.00378 µM

## Cc1ccncc1S(=O)(=O)c1ccc(CNC(=O)c2cc3cnccc3[nH]2)cc1 [N-{[4-(4-methylpyridine-3-sulfonyl)phenyl]methyl}-1H-pyrrolo[3,2-c]pyridine-2-carboxamide]
NAMPT; NAMPT enzymatic assay
  IC50: 0.26 µM
A2780 cells; SRB
  IC50: 0.0258 µM

## COc1ccc(S(=O)(=O)c2ccc(CNC(=O)c3cc4ccncc4s3)cc2)cc1Cl [N-({4-[(3-chloro-4-methoxybenzene)sulfonyl]phenyl}methyl)thieno[2,3-c]pyridine-2-carboxamide]
NAMPT; NAMPT enzymatic reaction
  IC50: 0.005 µM
A2780 cells; SRB
  IC50: 0.0016 µM

## O=C(NCc1ccc(S(=O)(=O)c2ccc(C(F)(F)F)cc2)cc1)c1cnc2[nH]ncc2c1 [N-[(4-{[4-(trifluoromethyl)benzene]sulfonyl}phenyl)methyl]-1H-pyrazolo[3,4-b]pyridine-5-carboxamide]
NAMPT; NAMPT enzymatic assay
  IC50: 0.0199 µM
A2780 cells; SRB
  IC50: 0.0194 µM

## O=C(NCc1ccc(S(=O)(=O)c2cnc3ccc(Cl)cn23)cc1)c1ccc2nccn2c1 [N-[(4-{6-chloroimidazo[1,2-a]pyridine-3-sulfonyl}phenyl)methyl]imidazo[1,2-a]pyridine-6-carboxamide]
NAMPT; NAMPT enzymatic assay
  IC50: 0.0053 µM
A2780 cells; SRB
  IC50: 0.0004 µM

## O=C(NCc1ccc(S(=O)(=O)C2CCCCC2)cc1)c1cc2cnccc2[nH]1 [N-{[4-(cyclohexanesulfonyl)phenyl]methyl}-1H-pyrrolo[3,2-c]pyridine-2-carboxamide]
NAMPT; NAMPT enzymatic assay
  IC50: 0.005 µM
A2780 cells; SRB
  IC50: 0.0176 µM

## CCc1ccccc1S(=O)(=O)c1ccc(CNC(=O)c2ccc3nccn3c2)cc1 [N-({4-[(2-ethylbenzene)sulfonyl]phenyl}methyl)imidazo[1,2-a]pyridine-6-carboxamide]
NAMPT; NAMPT enzymatic reaction
  IC50: 0.0302 µM
A2780 cells; SRB
  IC50: 0.0129 µM

## Cn1cc(S(=O)(=O)c2ccc(CNC(=O)c3cc4cnccc4[nH]3)cc2)cn1 [N-{[4-(1-methyl-1H-pyrazole-4-sulfonyl)phenyl]methyl}-1H-pyrrolo[3,2-c]pyridine-2-carboxamide]
NAMPT; NAMPT enzymatic reaction
  IC50: 0.048 µM
A2780 cells; SRB assay
  IC50: 0.123 µM

## CCN(C)c1ncc(S(=O)(=O)c2ccc(CNC(=O)c3cnc4nccn4c3)cc2)s1 [N-[(4-{2-[ethyl(methyl)amino]-1,3-thiazole-5-sulfonyl}phenyl)methyl]imidazo[1,2-a]pyrimidine-6-carboxamide]
NAMPT; NAMPT enzymatic assay
  IC50: 0.0018 µM
A2780 cells; SRB
  IC50: 0.0009 µM

## O=C(NCc1ccc(S(=O)(=O)c2ccc(F)c(C(F)(F)F)c2)cc1)c1cc2cnccc2[nH]1
NAMPT; NAMPT enzymatic assay
  IC50: 0.0164 µM
A2780 cells; SRB
  IC50: 0.0043 µM

## CCCOc1ccc(S(=O)(=O)c2ccc(CNC(=O)c3cnc4nccn4c3)cc2)c(C)c1
NAMPT; NAMPT enzymatic reaction
  IC50: 0.01 µM
A2780 cells; SRB
  IC50: 0.0518 µM

## O=C(NCc1ccc(S(=O)(=O)c2ccc(-n3ccnc3)cc2)cc1)c1cnc2nccn2c1
NAMPT; NAMPT enzymatic assay
  IC50: < 0.00065 µM
A2780 cells; SRB
  IC50: 0.0122 µM

## CC(C)Oc1ccc(Cl)cc1S(=O)(=O)c1ccc(CNC(=O)c2cc3ccncc3o2)cc1
NAMPT; NAMPT enzymatic assay
  IC50: 0.0091 µM
A2780 cells; SRB
  IC50: 0.0121 µM

## COc1ccc(S(=O)(=O)c2ccc(CNC(=O)c3cc4cnccc4[nH]3)cc2)cc1Cl
NAMPT; NAMPT enzymatic reaction
  IC50: 0.0107 µM
A2780 cells; SRB
  IC50: 0.0021 µM

## CCN(CC)C(=O)c1cc(Cl)cc(S(=O)(=O)c2ccc(CNC(=O)c3cnc4nccn4c3)cc2)c1
NAMPT; NAMPT enzymatic assay
  IC50: 0.0009 µM
A2780 cells; SRB
  IC50: 0.0012 µM

## O=C(NCc1ccc(S(=O)(=O)c2cncc3ccccc23)cc1)c1ccc2nccn2c1 [N-{[4-(isoquinoline-4-sulfonyl)phenyl]methyl}imidazo[1,2-a]pyridine-6-carboxamide]
NAMPT; NAMPT enzymatic assay
  IC50: 0.0224 µM
A2780 cells; SRB
  IC50: 0.0041 µM
